Data set [1] addresses T1, recombinant human monoamine oxidase A (hMAO-A) (Homo sapiens, UniProt P21397).
T1 sequence (P21397 1-527): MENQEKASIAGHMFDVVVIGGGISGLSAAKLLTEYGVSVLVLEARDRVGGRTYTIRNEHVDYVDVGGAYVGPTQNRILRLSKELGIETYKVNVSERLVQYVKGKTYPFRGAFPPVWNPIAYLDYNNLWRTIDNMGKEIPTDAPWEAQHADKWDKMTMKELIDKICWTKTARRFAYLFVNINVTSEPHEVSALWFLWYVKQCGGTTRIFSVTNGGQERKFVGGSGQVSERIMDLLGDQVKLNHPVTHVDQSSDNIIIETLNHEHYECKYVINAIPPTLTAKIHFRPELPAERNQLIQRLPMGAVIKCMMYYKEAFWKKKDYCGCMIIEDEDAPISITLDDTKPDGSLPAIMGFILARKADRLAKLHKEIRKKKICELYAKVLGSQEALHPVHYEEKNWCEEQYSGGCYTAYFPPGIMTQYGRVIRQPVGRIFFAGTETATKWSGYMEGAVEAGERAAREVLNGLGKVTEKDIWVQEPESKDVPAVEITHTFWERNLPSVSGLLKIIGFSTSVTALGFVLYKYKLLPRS
Kind of data set: hMAO-A enzyme kinetics (Lineweaver-Burk, Dixon, secondary plots). Format: biochemical. Conditions: for Ki: hMAO-A, from secondary plots; for Inhibition Type, hMAO-A: Lineweaver-Burk and Dixon plots.

Data set [2] addresses T2, human M4 muscarinic acetylcholine receptor (hM4R) (Homo sapiens, UniProt P08173).
T2 construct: host or cells: CHO cells
T2 sequence (P08173 1-479): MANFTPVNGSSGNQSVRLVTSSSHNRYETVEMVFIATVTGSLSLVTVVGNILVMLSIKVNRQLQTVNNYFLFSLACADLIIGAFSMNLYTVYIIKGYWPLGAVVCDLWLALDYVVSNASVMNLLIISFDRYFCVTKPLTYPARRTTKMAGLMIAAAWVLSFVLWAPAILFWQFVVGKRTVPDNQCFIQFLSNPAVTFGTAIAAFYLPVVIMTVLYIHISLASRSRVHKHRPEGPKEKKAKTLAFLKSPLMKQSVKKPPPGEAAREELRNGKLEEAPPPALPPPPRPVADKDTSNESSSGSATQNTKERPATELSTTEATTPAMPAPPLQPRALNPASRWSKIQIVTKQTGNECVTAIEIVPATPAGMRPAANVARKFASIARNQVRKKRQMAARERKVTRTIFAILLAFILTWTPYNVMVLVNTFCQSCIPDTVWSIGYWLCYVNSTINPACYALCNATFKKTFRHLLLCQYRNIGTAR
Kind of data set: M4 (h) functional GPCR assay, agonist effect, cAMP HTRF. Format: cell-based. The conditions noted are these: 100 µM; % of control response to 1-µM acetylcholine; CHO cells.

On the set-up of data set [3]: method as in PMID 31943245. Conditions: rats, cited from earlier work.

We go through one molecule from paper PMC8301926 (Biomolecules, 2021).

Take `Cc1coc2c1C(=O)C(=O)c1c-2ccc2c(C)cccc12` [Tanshinone I]: the Ki in data set [1] (Kic) was found to be 1.69 ± 0.19 µM; in data set [1] (Kiu), 4.65 ± 0.16 µM. Also, the “Inhibition Type, hMAO-A” value in data set [1] is “Mixed”; in data set [1] (listed as 1), “mixed-mode”. Moreover, the “% Stimulation, M4” value in data set [2] is −23.5 ± 1.48%. Moreover, the tissue distribution entry in data set [3] (after oral administration) is listed as “distribution of 1 into the brain”. Moreover, in data set [3] (oral administration, among tanshinones 1, 2, 3, and Dtan I), the half-life entry was “most extended half-life”.
